Tested on: 439559-082-T-J2-PDC spheroids viability
Test: Anticancer human tumor 439559-082-T-J2-PDC patient-derived colon adenocarcinoma cell line growth inhibition [GQUAD]
Details: for IC50: curve of first compound; for viability, T/C: stronger effect = lower value
In short: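 Tumor cells were grown as complex spheroids with HUVEC endothelial cells and mesenchymal stem cells as stroma. G-quadruplex stabilizers were combined with targeted agents over half-log dilutions from near the clinical Cmax, or from 10 microM.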

[1] = second compound 0.0316 µM, first compound 0.0316 µM
[2] = second compound 0.0316 µM, first compound 0.1 µM
[3] = second compound 0.0316 µM, first compound 0.316 µM
[4] = second compound 0.0316 µM, first compound 1 µM
[5] = second compound 0.0316 µM, first compound 3.16 µM
[6] = second compound 0.0316 µM, first compound 10 µM
[7] = second compound 0.1 µM, first compound 0.0316 µM
[8] = second compound 0.1 µM, first compound 0.1 µM
[9] = second compound 0.1 µM, first compound 0.316 µM
[10] = second compound 0.1 µM, first compound 1 µM
[11] = second compound 0.1 µM, first compound 3.16 µM
[12] = second compound 0.1 µM, first compound 10 µM
[13] = second compound 0.316 µM, first compound 0.0316 µM
[14] = second compound 0.316 µM, first compound 0.1 µM
[15] = second compound 0.316 µM, first compound 0.316 µM
[16] = second compound 0.316 µM, first compound 1 µM
[17] = second compound 0.316 µM, first compound 3.16 µM
[18] = second compound 0.316 µM, first compound 10 µM
[19] = second compound 1 µM, first compound 0.0316 µM
[20] = second compound 1 µM, first compound 0.1 µM
[21] = second compound 1 µM, first compound 0.316 µM
[22] = second compound 1 µM, first compound 1 µM
[23] = second compound 1 µM, first compound 3.16 µM
[24] = second compound 1 µM, first compound 10 µM
[25] = second compound 3.16 µM, first compound 0.0316 µM
[26] = second compound 3.16 µM, first compound 0.1 µM
[27] = second compound 3.16 µM, first compound 0.316 µM
[28] = second compound 3.16 µM, first compound 1 µM
[29] = second compound 3.16 µM, first compound 3.16 µM
[30] = second compound 3.16 µM, first compound 10 µM
[31] = second compound 10 µM, first compound 0.0316 µM
[32] = second compound 10 µM, first compound 0.1 µM
[33] = second compound 10 µM, first compound 0.316 µM
[34] = second compound 10 µM, first compound 1 µM
[35] = second compound 10 µM, first compound 3.16 µM
[36] = second compound 10 µM, first compound 10 µM
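Further: spheroids exposed to the agents for 7 days before readout.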
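Wherever viability, T/C is given: percent of luminescence signal in DMSO vehicle wells taken as 100% viability.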

Structure (SMILES): Cc1cccc(N(C)C(=O)C2C(O)CCN2c2nc(C)cc(C(F)(F)F)c2C#N)c1 (centres undefined) + Cc1[nH]c2ccc(F)cc2c1-c1nc2c3cccnc3c3ncccc3c2[nH]1
- IC50 (second compound 0.0316 µM): > 10 µM
- IC50 (second compound 0.1 µM): > 10 µM
- IC50 (second compound 0.316 µM): > 10 µM
- IC50 (second compound 1 µM): > 10 µM
- IC50 (second compound 3.16 µM): > 10 µM
- IC50 (second compound 10 µM): > 10 µM
- viability, T/C [1]: 98.7%
- viability, T/C [2]: 106%
- viability, T/C [3]: 99.8%
- viability, T/C [4]: 103%
- viability, T/C [5]: 92.8%
- viability, T/C [6]: 95.9%
- viability, T/C [7]: 106%
- viability, T/C [8]: 91.6%
- viability, T/C [9]: 99.8%
- viability, T/C [10]: 96.3%
- viability, T/C [11]: 100%
- viability, T/C [12]: 92.6%
- viability, T/C [13]: 98.6%
- viability, T/C [14]: 101%
- viability, T/C [15]: 92.7%
- viability, T/C [16]: 108%
- viability, T/C [17]: 96.2%
- viability, T/C [18]: 83.3%
- viability, T/C [19]: 96.2%
- viability, T/C [20]: 91.2%
- viability, T/C [21]: 87.4%
- viability, T/C [22]: 100%
- viability, T/C [23]: 88.9%
- viability, T/C [24]: 88.1%
- viability, T/C [25]: 78.6%
- viability, T/C [26]: 77.7%
- viability, T/C [27]: 93.1%
- viability, T/C [28]: 88.3%
- viability, T/C [29]: 84.7%
- viability, T/C [30]: 77%
- viability, T/C [31]: 85.5%
- viability, T/C [32]: 83.6%
- viability, T/C [33]: 87.5%
- viability, T/C [34]: 84.9%
- viability, T/C [35]: 87%
- viability, T/C [36]: 78.5%

Structure (SMILES): O=C(c1cc(Cc2n[nH]c(=O)c3ccccc23)ccc1F)N1CCN(C(=O)C2CC2)CC1 + Cc1[nH]c2ccc(F)cc2c1-c1nc2c3cccnc3c3ncccc3c2[nH]1
- IC50 (second compound 0.0316 µM): > 10 µM
- IC50 (second compound 0.1 µM): > 10 µM
- IC50 (second compound 0.316 µM): > 10 µM
- IC50 (second compound 1 µM): > 10 µM
- IC50 (second compound 3.16 µM): > 10 µM
- IC50 (second compound 10 µM): > 10 µM
- viability, T/C [1]: 100%
- viability, T/C [2]: 110%
- viability, T/C [3]: 91.5%
- viability, T/C [4]: 96.8%
- viability, T/C [5]: 102%
- viability, T/C [6]: 96.3%
- viability, T/C [7]: 103%
- viability, T/C [8]: 104%
- viability, T/C [9]: 94.9%
- viability, T/C [10]: 90.5%
- viability, T/C [11]: 103%
- viability, T/C [12]: 100%
- viability, T/C [13]: 103%
- viability, T/C [14]: 99.3%
- viability, T/C [15]: 105%
- viability, T/C [16]: 102%
- viability, T/C [17]: 107%
- viability, T/C [18]: 89.9%
- viability, T/C [19]: 105%
- viability, T/C [20]: 102%
- viability, T/C [21]: 98.3%
- viability, T/C [22]: 99.3%
- viability, T/C [23]: 105%
- viability, T/C [24]: 89%
- viability, T/C [25]: 90.8%
- viability, T/C [26]: 79%
- viability, T/C [27]: 92.7%
- viability, T/C [28]: 89.9%
- viability, T/C [29]: 98.8%
- viability, T/C [30]: 87.3%
- viability, T/C [31]: 88.2%
- viability, T/C [32]: 87.1%
- viability, T/C [33]: 86.2%
- viability, T/C [34]: 76%
- viability, T/C [35]: 90.5%
- viability, T/C [36]: 89.5%

From PubChem BioAssay AID2060510 (Molecular Pharmacology Branch, DTP, NCI, 2025)
